The nature of data set [1]: UV-visible absorbance spectroscopy of fluorophores (15 μM, 90% aqueous, 10% DMSO). The format is physicochemical. As to conditions: for red-shift of absorbance maximum: 15a compared to 20a, anion 15h compared to anion 20c. As for the experimental part: Compounds 20a and 15a were characterized by UV-visible spectroscopy (FIG. 25). Absorbance was measured using 15 μM solutions of each compound in a solution that was 90% aqueous, 10% DMSO. The peaks at 545 nm (light dashed line) and 595 nm (light solid line) represent the respective anions, compounds 20c and 15h, in NaOH (pH 12). The peaks at 515 nm (heavy dashed line) and 525 nm (heavy solid line) represent the predominantly neutral forms of compounds 20a and 15a at pH 6, respectively.
Although the red shift of compound 15a in methanol was modest, its corresponding anion (compound 15h) in DMSO:aqueous base 1:9 was shifted more substantially by 50 nm to […] as compared to anion 20c under the same conditions. Its fluorescence emission was shifted by an even larger […], emitting at 760 nm. The comparatively large shift of the anion 15h supports a polar effect as playing a key role in modulating the HOMO-LUMO gap in the compound. […]
Known seminaphthorhodafluors display long wavelength absorption at high pH; however, the free amino compound in this series respond to low pH with increased long wavelength absorption.

A short description of data set [2]: Absorbance and fluorescence measured in methanol. The class given is physicochemical. As to conditions: versus analogue with known regiochemistry (8 vs 22, 15a vs 20a). As for the experimental part:
Absorbance and fluorescence of compounds 22 and 8 also were measured in methanol. […] Thus, placement of the hydroxyl group proximal to the xanthene internal oxygen in compound 8 produced a bathochromic shift of 103 nm in the absorption spectrum. The transposition also imparted a corresponding shift in the excitation spectrum, and a large bathochromic shift of 128 nm in the fluorescence emission. Importantly, compound 8 absorbs and emits in the near-infrared with absorption and emission maxima of 701 nm and 816 nm, respectively.
Absorbance and fluorescence of compounds 20a and 15a also were measured in methanol. […] Thus, placement of the hydroxyl group proximal to the xanthene internal oxygen in compound 15a produced a bathochromic shift of 15 nm in the absorbance spectrum. The transposition also imparted a corresponding shift in the excitation spectrum, and a large bathochromic shift of 32 nm in the fluorescence emission.

A short description of data set [3]: Absorbance and emission in 0.1M NaOH. The class given is physicochemical. An excerpt:
The absorbance and fluorescence spectra of the fluorophore typically are pH dependent. For example, the absorbance maximum for one ester derivative (compound 15d) in 0.1M NaOH is 620 nm and the emission maximum in same solvent is 770 nm. The Stokes shift in this solvent is 150 nm (3142 cm^−1).

The nature of data set [4]: Emission in blood. Also noted: species or system porcine. The protocol: Compound 15d (Table 1) was diluted to 40 μM in 50% DMSO:50% 25 mM pH 9 phosphate buffer. […] Emission remained stable for at least 1 hour. The absorption profile matches the output of a laser pointer (635-670 nm; max output <5 mW). NIR emission (80 μM) was clearly visible with a digital camera (Kodak EasyShare Z740) in a NIR photograph taken with 8 sec. exposure collected through a Hoya R72 camera filter (% T<1% at <690 nm, % T>90% at >750 nm).
Its absorbance and fluorescence spectra faded over time, but remained visible after about an hour (although with only 10-20% of its original emission intensity). Molecular modeling has shown favorable structural interactions of compounds 5f and 24 with glutathione (see, e.g., FIG. 20—compound 24).
Spectral behavior of compound 15g (type [c] annulated seminaphthorhodamine methyl ester (free amine) with the 3-1 transposition) was investigated to determine its potential for sensing use in whole blood. Solutions of compound 15g in 10% or 90% by volume whole blood (porcine blood in Na-EDTA, Lampire Biological Laboratories) were investigated in a 3×3 mm cell. […] Throughout much of the spectrum, the dye produces a greater absorbance than the blood alone. The change in absorbance between the two spectra provides the effective absorbance of the dye. […]

The nature of data set [5]: Fluorescence emission spectra and Stokes shift of fluorophores (15 μM, 90% aqueous, 10% DMSO). The format is physicochemical. As for the experimental part: Compounds 21 and 7 also were characterized by their fluorescence emission spectra. Fluorescence was measured using 15 μM solutions of each compound in a solution that was 90% aqueous, 10% DMSO. For compound 21, the longest wavelength emission observed from the dianion occurred near 680 nm at pH 9. For compound 7 (transposed), the longest wavelength emission observed from the monoanion occurred near 800 nm at pH 9.
The Stokes shift of each compound was measured and determined to be about 80 nm for the compound 21 dianion, and about 150 nm for the compound 7 (transposed) monoanion.
Compounds 22 and 8 also were characterized by their fluorescence emission spectra. Fluorescence was measured using 15 μM solutions of each compound in a solution that was 90% aqueous, 10% DMSO. For compound 22, the longest wavelength emission observed from the anion occurred near 690 nm at pH 9. For compound 8 (transposed), emission was not observed. Given the greater than 800 nm absorbance peak and the typically large Stokes shifts observed in this class of compounds, it is likely that the emission was beyond the working range of the instrument (>850 nm).
The Stokes shift of each compound was measured and determined to be about 80 nm for the compound 22 anion, and unmeasurable for the compound 8 (transposed) neutral form.
Compounds 20a and 15a also were characterized by their fluorescence emission spectra. Fluorescence was measured using 15 μM solutions of each compound in a solution that was 90% aqueous, 10% DMSO. For compound 20a, the longest wavelength emission observed from its corresponding anion, compound 20c, occurred near 640 nm in NaOH (pH 12). For compound 15a (with 3-1 transposition), the longest wavelength emission observed from the corresponding anion, compound 15h, occurred near 760 nm in NaOH.
The Stokes shift of each compound was measured and determined to be about 95 nm for the compound 20c anion, and about 165 nm for the compound 15h (transposed) anion. Thus, the 3-1 transposition enhanced the Stokes shift by about 70 nm.
Compound 15b also was characterized by its fluorescence emission spectrum and compared to C.SNARF-5. Fluorescence was measured using a 15 μM solution of compound 15b in a solution that was 90% aqueous, 10% DMSO. For C.SNARF-5, the longest wavelength emission observed from the anion occurred near 632 nm (Whitaker et al., Anal. Biochem. 1991, 194, 330-344). For compound 15b (transposed), the longest wavelength emission observed from the phenoxide occurred near 770 nm.
The Stokes shift of each compound was measured and determined to be about 82 nm for the C.SNARF-5 anion, and about 155 nm for the compound 15b (transposed) phenoxide. Thus, the 3-1 transposition enhanced the Stokes shift by about 73 nm.
Compound 15d also was characterized by its fluorescence emission spectrum and compared to SNARF-1. Fluorescence was measured using a 15 μM solution of compound 15d in a solution that was 90% aqueous, 10% DMSO. For SNARF-1, the longest wavelength emission observed from the anion occurred near 631 nm (Whitaker et al., Anal. Biochem. 1991, 194, 330-344). For compound 15d (transposed), the longest wavelength emission observed from the phenoxide occurred near 780 nm (NaOH, pH 12).
The Stokes shift of each compound was measured and determined to be about 58 nm for the SNARF-1 anion, and about 150 nm for the compound 15d (transposed) phenoxide. Thus, the 3-1 transposition enhanced the Stokes shift by about 92 nm.
Compounds 20b and 15g also were characterized by their fluorescence emission spectra. Fluorescence was measured using 15 μM solutions of each compound in a solution that was 90% aqueous, 10% DMSO. For compound 20b, the longest wavelength emission observed from the cation occurred near 640 nm at pH 7.4. For compound 15g (transposed), the longest wavelength emission observed from the cation occurred near 770 nm at pH 7.4. […]

Data set [6] is described as follows: Spectral properties of rhodamine bis-boronic acids and precursors (Table 5). The class given is physicochemical. An excerpt:
Excitation and emission spectra were normalized to their absorbance at the excitation wavelength, and are proportional to quantum yield.

The mark [7] stands for this setting: DMSO:buffer 1:1, pH 7.4 phosphate buffer 12.5 mM.
[8] abbreviates: DMSO:buffer 1:9, pH 7.4 phosphate buffer 12.5 mM.

`COC(=O)c1ccccc1-c1c2ccc(=O)cc-2oc2c1ccc1cccc(O)c12` [Compound 15a]: the “red-shift of absorbance maximum” value in data set [1] was found to be 15 nm. In addition, in data set [2], the “bathochromic shift in the absorption spectrum” value came to 15 nm and the “bathochromic shift in the fluorescence emission” value was found to be 32 nm.
For `COC(=O)c1ccccc1-c1c2ccc(=[N+](C)C)cc-2oc2c1ccc1cccc(O)c12` [Compound 15d], in data set [3], the absorbance maximum was determined as 620 nm and the emission maximum is 770 nm. For the same molecule, the “time emission remained stable” value in data set [4] (5% whole blood) is on record as “at least 1 hour”.
As to `Cc1ccc(C)c(-c2c3ccc4cccc(O)c4c3oc3c2ccc2cccc(=O)c23)c1` [Compound 4a], the “absorption in the blood solution” value in data set [4] (blood solution) is “clearly visible and remained stable over extended periods of time”.
For the molecule `COC(=O)c1ccccc1-c1c2ccc3cccc(O)c3c2oc2c1ccc1cccc(=O)c12` [Compound 8], the fluorescence emission result in data set [5] (15 μM, 90% aqueous, 10% DMSO, instrument range to 850 nm) was “not observed”. Moreover, in data set [2], the “bathochromic shift in the absorption spectrum” value was 103 nm and the “bathochromic shift in the fluorescence emission” value is 128 nm.
As to `O=C1OC2(c3ccccc31)c1ccc3cccc(O)c3c1Oc1c2ccc2cccc(O)c12` [Compound 7], the form in solution entry in data set [1] (1:9 DMSO:buffer below physiological pH of 7.4) was “colorless lactone”. The longest wavelength emission result in data set [5] (NaOH (pH 12), anion/dianion/phenoxide, 15 μM, 90% aqueous, 10% DMSO) is “either too weak to be detected or, more likely, beyond the working range of the instrument”.
For `N=c1ccc2c(ccc3c(-c4ccccc4C(=O)O)c4ccc(N)cc4oc32)c1` [Compound 50], in data set [6] (DMSO buffer 1:9), the quantum yield came to 19%, the “red shift of maximum absorption versus rhodamine 110” value was 40 nm and the “red shift of maximum emission versus rhodamine 110” value is approximately 100 nm. Also, in data set [6] (setting [7]), the Abs was determined as 542 nm, the Brightness is 6298, the Em is on record as 630 nm and the Ex was found to be 542 nm. In data set [6] (setting [7]), this molecule came in with a Q.Y. of 0.30 and a ε of 21064 M⁻¹ cm⁻¹. In data set [6] (setting [8]), this molecule came in with an Abs of 535 nm, a Brightness of 8083, an Em of 628 nm and an Ex of 534 nm. Further, in data set [6] (setting [8]), the Q.Y. is 0.19 and the ε was found to be 42701 M⁻¹ cm⁻¹.
Turning to `COC(=O)c1ccccc1-c1c2ccc(=O)cc-2oc2c1ccc1cccc(O)c12` [Compound 15h], the “red-shift of absorbance maximum” value in data set [1] is on record as 50 nm. Besides, in data set [1] (anion, DMSO:aqueous base 1:9), the absorbance maximum is 599 nm. In addition, the “bathochromic shift in emission wavelength” value in data set [5] (anion 15h compared to anion 20c) is on record as 130 nm. The Stokes shift result in data set [5] (anion/phenoxide in NaOH (pH 12)) is reported as “about 165 nm”; in data set [5] (anionic form, NIR emission at 760 nm) it was 160 nm. The fluorescence emission in data set [5] (anion, DMSO:aqueous base 1:9) came out at 760 nm.
With `COC(=O)c1ccccc1-c1c2ccc(=O)cc-2oc2c1ccc1cccc(N)c12` [Compound 15e], the “pH titration of absorption” value in data set [1] (low pH) was “increased long wavelength absorption and decreased short wavelength absorption at low pH”.

The values are drawn from US10197574B2, “Analyte detection using near-infrared fluorophores” (Portland State University, priority 2011, dated 2019).
